Assay results taken from ChEMBL document CHEMBL1909046, “DrugMatrix in vitro pharmacology data”.

Key:
[1] = target: Mitogen-activated protein kinase 3 (Homo sapiens, UniProt P27361); experiment: DRUGMATRIX: Protein Serine/Threonine Kinase, ERK1 enzyme inhibition (substrate: Myelin Basic Protein); design: species or system Escherichia coli; conditions: Not Active = under 50% inhibition at 10 µM
[2] = target: C-C chemokine receptor type 5 (Homo sapiens, UniProt P51681); assay type: cell membranes, Membrane; conditions: hek293; also: in other assays of this panel Not Active means under 50% inhibition at 10 µM
C-C chemokine receptor type 5, sequence (P51681 whole entry): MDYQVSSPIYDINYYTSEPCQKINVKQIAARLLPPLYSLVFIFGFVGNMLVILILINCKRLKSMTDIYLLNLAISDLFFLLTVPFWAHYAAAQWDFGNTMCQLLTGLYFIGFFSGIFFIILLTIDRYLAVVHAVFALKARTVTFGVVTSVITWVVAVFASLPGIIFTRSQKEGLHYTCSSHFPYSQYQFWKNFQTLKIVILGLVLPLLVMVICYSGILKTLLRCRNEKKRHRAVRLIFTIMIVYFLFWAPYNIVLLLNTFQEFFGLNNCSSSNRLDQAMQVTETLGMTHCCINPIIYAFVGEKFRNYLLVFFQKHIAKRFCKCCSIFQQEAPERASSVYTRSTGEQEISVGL

Androgen receptor = target: T1, Androgen receptor (Rattus norvegicus, UniProt P15207); also: in other assays of this panel Not Active means under 50% inhibition at 10 µM
T1 sequence (P15207 whole entry): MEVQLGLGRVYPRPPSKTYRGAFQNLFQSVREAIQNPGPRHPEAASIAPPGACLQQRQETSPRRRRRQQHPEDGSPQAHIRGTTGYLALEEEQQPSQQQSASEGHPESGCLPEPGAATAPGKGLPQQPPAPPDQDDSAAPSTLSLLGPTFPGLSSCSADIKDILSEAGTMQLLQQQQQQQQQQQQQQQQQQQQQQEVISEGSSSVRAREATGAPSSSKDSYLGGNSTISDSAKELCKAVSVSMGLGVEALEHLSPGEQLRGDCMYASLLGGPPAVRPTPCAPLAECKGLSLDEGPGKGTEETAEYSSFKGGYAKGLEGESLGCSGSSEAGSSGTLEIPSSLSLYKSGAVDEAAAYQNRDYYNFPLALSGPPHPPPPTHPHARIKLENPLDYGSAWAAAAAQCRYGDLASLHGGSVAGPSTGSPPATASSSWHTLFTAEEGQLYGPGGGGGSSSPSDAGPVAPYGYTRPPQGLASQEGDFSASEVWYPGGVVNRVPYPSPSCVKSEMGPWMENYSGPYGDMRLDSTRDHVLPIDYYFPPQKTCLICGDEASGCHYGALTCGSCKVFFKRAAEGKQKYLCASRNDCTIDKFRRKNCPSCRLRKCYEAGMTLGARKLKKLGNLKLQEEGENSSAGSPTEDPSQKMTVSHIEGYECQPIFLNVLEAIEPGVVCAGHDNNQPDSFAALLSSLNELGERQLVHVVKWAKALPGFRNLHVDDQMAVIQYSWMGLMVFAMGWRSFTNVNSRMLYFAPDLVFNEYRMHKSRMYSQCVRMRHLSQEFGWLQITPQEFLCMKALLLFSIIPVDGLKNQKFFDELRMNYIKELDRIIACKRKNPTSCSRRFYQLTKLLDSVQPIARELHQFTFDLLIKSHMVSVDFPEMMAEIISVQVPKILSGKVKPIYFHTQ

Cytochrome P450 3A4 = Cytochrome P450 3A4 (Homo sapiens, UniProt P08684); conditions: bti-tn-5b1-4; also: in other assays of this panel Not Active means under 50% inhibition at 10 µM
Cytochrome P450 3A4, sequence (P08684 whole entry): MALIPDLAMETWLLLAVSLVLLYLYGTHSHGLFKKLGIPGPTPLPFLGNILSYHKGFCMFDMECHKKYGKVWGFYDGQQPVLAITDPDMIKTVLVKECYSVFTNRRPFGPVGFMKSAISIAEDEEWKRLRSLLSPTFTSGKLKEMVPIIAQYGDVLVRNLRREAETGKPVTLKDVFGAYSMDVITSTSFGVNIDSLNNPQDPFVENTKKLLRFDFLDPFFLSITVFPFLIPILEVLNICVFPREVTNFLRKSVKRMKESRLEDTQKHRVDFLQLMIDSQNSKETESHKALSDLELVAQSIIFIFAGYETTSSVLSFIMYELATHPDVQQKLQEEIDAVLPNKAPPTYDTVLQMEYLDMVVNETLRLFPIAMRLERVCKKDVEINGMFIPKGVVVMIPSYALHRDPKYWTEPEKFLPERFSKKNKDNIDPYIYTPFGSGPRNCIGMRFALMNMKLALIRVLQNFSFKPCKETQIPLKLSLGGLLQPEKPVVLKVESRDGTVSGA

Progesterone receptor = target: T2, Progesterone receptor (Bos taurus, UniProt Q690N0); experiment: DRUGMATRIX: Progesterone radioligand binding (ligand: [3H] R-5020); assay type: tissue-based, Uterus; conditions: Not Active = under 50% inhibition at 10 µM; for Ki: read-out: Ki
T2 sequence (Q690N0 whole entry): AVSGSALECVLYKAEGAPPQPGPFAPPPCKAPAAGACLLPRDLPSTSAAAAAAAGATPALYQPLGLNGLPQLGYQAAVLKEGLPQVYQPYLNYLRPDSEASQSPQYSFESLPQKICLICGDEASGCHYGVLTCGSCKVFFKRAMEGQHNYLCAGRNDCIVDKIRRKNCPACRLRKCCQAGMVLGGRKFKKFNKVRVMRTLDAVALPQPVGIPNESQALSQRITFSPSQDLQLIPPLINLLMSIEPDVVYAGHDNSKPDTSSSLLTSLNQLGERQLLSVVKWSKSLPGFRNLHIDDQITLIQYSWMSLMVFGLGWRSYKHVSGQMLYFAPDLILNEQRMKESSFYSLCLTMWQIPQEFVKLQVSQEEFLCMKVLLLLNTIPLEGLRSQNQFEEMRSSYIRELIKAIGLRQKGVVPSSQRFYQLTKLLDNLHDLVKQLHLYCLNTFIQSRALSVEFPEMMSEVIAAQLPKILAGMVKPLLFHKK

B2 bradykinin receptor = target: T3, B2 bradykinin receptor (Homo sapiens, UniProt P30411); assay type: cell membranes, Membrane; conditions: chem-1; also: in other assays of this panel Not Active means under 50% inhibition at 10 µM
T3 sequence (P30411 whole entry): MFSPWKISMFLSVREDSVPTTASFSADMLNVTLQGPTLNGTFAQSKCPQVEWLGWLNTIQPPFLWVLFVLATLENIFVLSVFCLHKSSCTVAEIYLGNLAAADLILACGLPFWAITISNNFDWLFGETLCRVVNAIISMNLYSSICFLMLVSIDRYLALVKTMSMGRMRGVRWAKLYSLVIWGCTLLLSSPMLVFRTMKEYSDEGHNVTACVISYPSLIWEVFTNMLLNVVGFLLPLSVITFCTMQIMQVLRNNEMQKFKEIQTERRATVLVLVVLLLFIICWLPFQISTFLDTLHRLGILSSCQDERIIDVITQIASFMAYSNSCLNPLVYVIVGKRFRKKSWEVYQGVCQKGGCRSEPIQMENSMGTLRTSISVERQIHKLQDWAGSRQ

Estrogen receptor = target: T4, Estrogen receptor (Homo sapiens, UniProt P03372); conditions: sf9; also: in other assays of this panel Not Active means under 50% inhibition at 10 µM
T4 sequence (P03372 whole entry): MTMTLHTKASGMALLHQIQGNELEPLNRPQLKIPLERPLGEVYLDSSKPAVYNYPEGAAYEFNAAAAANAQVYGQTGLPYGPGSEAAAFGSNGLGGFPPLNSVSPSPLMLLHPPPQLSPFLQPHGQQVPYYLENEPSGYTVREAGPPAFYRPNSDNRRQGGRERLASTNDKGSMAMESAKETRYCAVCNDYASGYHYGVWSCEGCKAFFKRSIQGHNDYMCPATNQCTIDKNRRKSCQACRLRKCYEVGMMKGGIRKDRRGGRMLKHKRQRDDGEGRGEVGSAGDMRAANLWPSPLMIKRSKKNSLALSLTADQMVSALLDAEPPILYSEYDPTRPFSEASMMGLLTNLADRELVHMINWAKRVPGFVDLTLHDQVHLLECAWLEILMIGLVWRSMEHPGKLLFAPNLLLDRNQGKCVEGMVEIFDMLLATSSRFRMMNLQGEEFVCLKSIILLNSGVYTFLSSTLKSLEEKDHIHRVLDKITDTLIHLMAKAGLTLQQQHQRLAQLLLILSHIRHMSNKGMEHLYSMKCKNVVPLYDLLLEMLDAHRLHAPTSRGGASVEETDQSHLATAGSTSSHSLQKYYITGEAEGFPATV

Mitogen-activated protein kinase 3, sequence (P27361 whole entry): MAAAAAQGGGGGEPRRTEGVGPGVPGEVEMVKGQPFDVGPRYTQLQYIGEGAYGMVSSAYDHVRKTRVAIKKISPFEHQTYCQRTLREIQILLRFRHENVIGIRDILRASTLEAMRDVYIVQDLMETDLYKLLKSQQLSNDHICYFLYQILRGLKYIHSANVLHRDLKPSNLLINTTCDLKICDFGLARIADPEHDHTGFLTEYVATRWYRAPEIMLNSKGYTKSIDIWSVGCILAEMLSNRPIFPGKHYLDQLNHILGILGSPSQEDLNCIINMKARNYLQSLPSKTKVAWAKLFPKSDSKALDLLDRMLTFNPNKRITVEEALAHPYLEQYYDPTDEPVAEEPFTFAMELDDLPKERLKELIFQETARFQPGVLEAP

| Structure (SMILES) | IC50 [1] | IC50 [2] | IC50 (Androgen receptor) | IC50 (Cytochrome P450 3A4) | Ki (Cytochrome P450 3A4) | IC50 (Progesterone receptor) | IC50 (B2 bradykinin receptor) | IC50 (Estrogen receptor) | IC50 (Progesterone receptor; read-out: IC50) | Ki (Progesterone receptor) |
| --- | --- | --- | --- | --- | --- | --- | --- | --- | --- | --- |
| CC(C)(C)NCC(O)c1cc(Cl)c(N)c(Cl)c1 (centres undefined) [CLENBUTEROL] | Not Active | Not Active | Not Active | Not Active | Not Active | Not Active | Not Active | – | – | – |
| C[C@H]1O[C@@H](O[C@H]2[C@@H](O)C[C@H](O[C@H]3[C@@H](O)C[C@H](O[C@H]4CC[C@@]5(C)[C@H](CC[C@@H]6[C@@H]5C[C@@H](O)[C@]5(C)[C@@H](C7=CC(=O)OC7)CC[C@]65O)C4)O[C@@H]3C)O[C@@H]2C)C[C@H](O)[C@@H]1O [DIGOXIN] | Not Active | Not Active | Not Active | Not Active | Not Active | Not Active | Not Active | – | – | – |
| OC(Cn1cncn1)(Cn1cncn1)c1ccc(F)cc1F [FLUCONAZOLE] | Not Active | Not Active | – | Not Active | Not Active | Not Active | Not Active | Not Active | – | – |
| C[C@]12CCC(=O)C=C1CC[C@@H]1[C@@H]2CC[C@@]2(C)[C@H]1CC[C@]2(C)O [METHYLTESTOSTERONE] | Not Active | Not Active | – | Not Active | Not Active | – | Not Active | Not Active | 251 nM | 33 nM |
| O=c1oc2ccccc2c(O)c1Cc1c(O)c2ccccc2oc1=O [DICUMAROL] | Not Active | Not Active | Not Active | Not Active | Not Active | Not Active | Not Active | – | – | – |
| Cc1cc(C2CCCCC2)n(O)c(=O)c1 [CICLOPIROX] | Not Active | Not Active | – | Not Active | Not Active | Not Active | Not Active | Not Active | – | – |
| C[C@H](CCC(=O)O)[C@H]1CC[C@H]2[C@@H]3[C@H](O)C[C@@H]4C[C@H](O)CC[C@]4(C)[C@H]3C[C@H](O)[C@]12C [CHOLIC ACID] | Not Active | Not Active | – | Not Active | Not Active | Not Active | Not Active | Not Active | – | – |
| CC(C)C(Br)C(=O)NC(N)=O (centres undefined) [BROMISOVALUM] | Not Active | Not Active | – | Not Active | Not Active | Not Active | Not Active | Not Active | – | – |
| C[C@H](CS)C(=O)N1CCC[C@H]1C(=O)O [CAPTOPRIL] | Not Active | Not Active | Not Active | Not Active | Not Active | Not Active | Not Active | – | – | – |
| CC(O)CO (centres undefined) [PROPYLENE GLYCOL] | Not Active | Not Active | – | Not Active | Not Active | Not Active | Not Active | Not Active | – | – |
| Cc1c(O)c(=O)ccn1C [DEFERIPRONE] | Not Active | Not Active | – | Not Active | Not Active | Not Active | Not Active | Not Active | – | – |
| Nc1nc2c(ncn2COCCO)c(=O)[nH]1 [ACYCLOVIR] | Not Active | Not Active | – | Not Active | Not Active | Not Active | Not Active | Not Active | – | – |
| CC1(C)O[C@@H]2C[C@H]3[C@@H]4CCC5=CC(=O)CC[C@]5(C)[C@@]4(F)[C@@H](O)C[C@]3(C)[C@]2(C(=O)CCl)O1 [HALCINONIDE] | Not Active | Not Active | – | Not Active | Not Active | – | Not Active | Not Active | 0.93 nM | 0.121 nM |
| CC1CC(OC(=O)C(O)c2ccccc2)CC(C)(C)C1 (centres undefined) [CYCLANDELATE] | Not Active | Not Active | – | Not Active | Not Active | Not Active | Not Active | Not Active | – | – |
| Sc1ncnc2nc[nH]c12 [MERCAPTOPURINE ANHYDROUS] | Not Active | Not Active | – | Not Active | Not Active | Not Active | Not Active | Not Active | – | – |
| Cc1c(C)c2c(c(C)c1O)CC[C@@](C)(CCC[C@H](C)CCC[C@H](C)CCCC(C)C)O2 [ALPHA-TOCOPHEROL] | Not Active | Not Active | – | Not Active | Not Active | Not Active | Not Active | Not Active | – | – |
| O=C(O)CCCc1ccc(N(CCCl)CCCl)cc1 [CHLORAMBUCIL] | Not Active | Not Active | – | Not Active | Not Active | Not Active | Not Active | Not Active | – | – |
| CC[C@@]1(O)C[C@H](O[C@H]2C[C@H](N(C)C)[C@H](O[C@H]3C[C@H](O)[C@H](O[C@H]4CCC(=O)[C@H](C)O4)[C@H](C)O3)[C@H](C)O2)c2c(cc3c(c2O)C(=O)c2c(O)cccc2C3=O)[C@H]1C(=O)OC [ACLARUBICIN] | Not Active | Not Active | – | Not Active | Not Active | Not Active | Not Active | Not Active | – | – |
| CC(C)C(=O)Nc1ccc([N+](=O)[O-])c(C(F)(F)F)c1 [FLUTAMIDE] | Not Active | Not Active | – | Not Active | Not Active | Not Active | Not Active | Not Active | – | – |
| O=C(CCCN1CC=C(n2c(=O)[nH]c3ccccc32)CC1)c1ccc(F)cc1 [DROPERIDOL] | Not Active | Not Active | – | Not Active | Not Active | Not Active | Not Active | Not Active | – | – |
| CCOC(=O)C1=C(COCCN)NC(C)=C(C(=O)OC)C1c1ccccc1Cl (centres undefined) [AMLODIPINE] | Not Active | Not Active | – | Not Active | Not Active | Not Active | Not Active | Not Active | – | – |
